Reference: publication PMC4745983 (Frontiers in Cell and Developmental Biology, 2016)
Converted amounts (≈) assume the structure as drawn. Like-named read-outs stand apart in the source and are kept apart here. Marks after values point to notes of the source that are not given here. No end group written: not given here.

What was measured:
E. coli CECT101 = type: cell-based, Escherichia coli; settings: for Activity against E. coli CECT101 relative to nisin: comparison of MIC values / growth curves (Table 6, Figure 3)
Protocol: (§1) L. lactis strains were cultured in M17 broth supplemented with 0.5% (w/v) glucose (GM17) for genetic manipulation or in minimal expression medium (MEM) for protein expression at 30°C (Rink et al., [2005]). E. coli CECT101 was grown in Luria-Bertani broth aerated by shaking (200 rpm) at 37°C.
(§2) The indicator strains were first cultured until OD (600 nm) reached 0.5. When testing the MIC value, the culture was diluted 1000 times with the appropriate medium. All the tests were performed with a temperature controlled plate reader (Tecan infinite F200, Tecan Group AG) in a 96-well plate (Greiner Bio-one). The peptides were first diluted in gradient with medium and then mixed with diluted indicator strains. The final concentration of the peptides ranged from 0.00625 to 0.8 μM against L. lactis MG1363 and from 0.25 to 32 μM against E. coli CECT101 in 100 μl volume. The plate was incubated at 30°C or 37°C for 18 h depending on the indicator strain being L. lactis or E. coli, respectively. OD (600 nm) was checked every 30 min. For E. coli, 2 min of shaking was performed before every check. When testing the activity of nisin against E. coli in the presence of EDTA, an EDTA solution was prepared and added to a final concentration of 50, 110, or 250 μM. The minimal concentration of peptide causing no observed growth of indicator strains was considered as the MIC value.

L. lactis MG1363 = type: cell-based, Lactococcus lactis; settings: for MIC value, L. lactis MG1363: MG1363, 18 h
Protocol: as §1, §2

[1] = supernatant of L. lactis NZ9000 expression culture in MEM medium, mixed with supernatant containing NisP; settings: Lactococcus lactis, 30°C, up to 3 h induction; 1 h with NisP
E. coli BL21 AI = settings: indicator strain E. coli BL21 AI, cited from earlier work
Description: To increase the activity of nisin against Gram-negative bacteria, both the inhibition activity and trans-outer membrane activity are important. When the first three rings of nisin are intact, the lipid II binding activity is stable. Retaining the pore formation activity is crucial. By further variation of the linker between the nisin part and the tail or searching for more effic ...

E. coli ATCC 25922 = settings: indicator strain E. coli ATCC 25922, [2013], cited from earlier work
Description: Table 1 List of selected peptides with anti-Gram-negative bacteria activity. | column: MIC(μM)

[2] = supernatant of L. lactis NZ9000 expression culture in MEM medium; settings: Lactococcus lactis, 30°C, up to 3 h induction

With “Ring ABC + NGKPRPYSPRPTSHPRPIRV (bicyclic or more) [GNT8, nisin Ring ABC + drosocin tail]” the “MIC value, E. coli CECT101” value (E. coli CECT101; Luria-Bertani broth, 96-well plate, 100 μl, 37°C, 18 h, OD600 every 30 min, peptide 0.25-32 μM, lowest concentration with no observed growth, repeated at least two times) was greater than 16 µM and the “Activity against E. coli CECT101 relative to nisin” value (E. coli CECT101) was “lower net activity than nisin”.
In the case of `C=C1NC(=O)[C@H]([C@@H](C)CC)NC(=O)[C@H](NC(=O)/C(=C/C)NC(=O)[C@@H](N)[C@@H](C)CC)CSC[C@@H](C(=O)N[C@H]2C(=O)N3CCC[C@H]3C(=O)NCC(=O)N[C@H](C(=O)N[C@@H](CCCCN)C(=O)N[C@H]3C(=O)NCC(=O)N[C@@H](C)C(=O)N[C@@H](CC(C)C)C(=O)N[C@@H](CCSC)C(=O)NCC(=O)N[C@H](C(=O)N[C@@H](CC(N)=O)C(=O)N[C@@H](CCSC)C(=O)N[C@@H](CCCCN)C(=O)N[C@H]4C(=O)N[C@@H](C)C(=O)N[C@H]5C(=O)N[C@@H](CS[C@H]4C)C(=O)N[C@@H](Cc4c[nH]cn4)C(=O)N[C@H](C(=O)N[C@@H](CO)C(=O)NCC(=O)N4CCC[C@H]4C(=O)N[C@@H](CCCNC(=N)N)C(=O)N4CCC[C@H]4C(=O)N4CCC[C@H]4C(=O)N[C@@H](Cc4c[nH]cn4)C(=O)N4CCC[C@H]4C(=O)N[C@@H](CCCNC(=N)N)C(=O)N[C@@H](CC(C)C)C(=O)O)CS[C@H]5C)CS[C@H]3C)CS[C@H]2C)NC(=O)[C@H](CC(C)C)NC1=O` [GNT16SG], the “Activity against E. coli CECT101 relative to nisin” value (E. coli CECT101) is reported as “lower net activity than nisin”, the “Activity against E. coli relative to GNT16” value (E. coli CECT101; from MIC values) is reported as “more than four times lower activity” and the “Activity against L. lactis relative to GNT16-3rings (times higher)” value (L. lactis MG1363; from MIC values) is reported as 2.5 times.
In the case of `C=C1NC(=O)[C@H]([C@@H](C)CC)NC(=O)[C@H](NC(=O)/C(=C/C)NC(=O)[C@@H](N)[C@@H](C)CC)CSC[C@@H](C(=O)N[C@H]2C(=O)N3CCC[C@H]3C(=O)NCC(=O)N[C@H](C(=O)N[C@@H](CCCCN)C(=O)N[C@H]3C(=O)NCC(=O)N[C@@H](C)C(=O)N[C@@H](CC(C)C)C(=O)N[C@@H](CCSC)C(=O)NCC(=O)N[C@H](C(=O)N[C@@H](CC(N)=O)C(=O)N[C@@H](CCSC)C(=O)N[C@@H](CCCCN)C(=O)N4CCC[C@H]4C(=O)N[C@@H](CCCNC(=N)N)C(=O)N4CCC[C@H]4C(=O)N[C@@H](CCCNC(=N)N)C(=O)N4CCC[C@H]4C(=O)N4CCC[C@H]4C(=O)N[C@@H](CCCNC(=N)N)C(=O)N[C@@H](CCCNC(=N)N)C(=O)N[C@H](C(=O)N[C@@H](Cc4ccc(O)cc4)C(=O)N[C@@H](CC(N)=O)C(=O)N[C@@H](CCCNC(=N)N)C(=O)O)[C@@H](C)CC)CS[C@H]3C)CS[C@H]2C)NC(=O)[C@H](CC(C)C)NC1=O` [GNT7], the “MIC value, E. coli CECT101” value (E. coli CECT101; CECT101, 18 h) is reported as greater than 16 µM, the “Activity against E. coli CECT101 relative to nisin” value (E. coli CECT101) is reported as “lower net activity than nisin” and the “MIC value, L. lactis MG1363” value (L. lactis MG1363) is reported as 0.2 µM (≈ 0.74 µg/mL). For the same molecule, the “Activity against L. lactis relative to GNT16” value (L. lactis MG1363; from MIC values) was “equal activity as GNT16”.
In the case of Ring ABC + NMKPRPRPPRRIYNR, the cleaved bond [1] is reported as “N-R and Y-N and I-Y and R-I”.
In the case of “Gu-ONNRPVYIPRPRPPHPRL-NH2 [Api 88, derivative of apidaecin 1b with increased positive charges and an amidated C-terminus]”, the MIC (E. coli BL21 AI; ref Czihal et al., [2012]) is given as 0.2^b μM.
For KKLFKKILKYL-NH2 [R-BP100], the MIC (E. coli ATCC 25922; ref Torcato et al.) is given as 0.9 ± 0.4^f μM.
With `C=C1NC(=O)[C@H]([C@@H](C)CC)NC(=O)[C@H](NC(=O)/C(=C/C)NC(=O)[C@@H](N)[C@@H](C)CC)CSC[C@@H](C(=O)N[C@H]2C(=O)N3CCC[C@H]3C(=O)NCC(=O)N[C@H](C(=O)N[C@@H](CCCCN)C(=O)N[C@H]3C(=O)NCC(=O)N[C@@H](C)C(=O)N[C@@H](CC(C)C)C(=O)N[C@@H](CCSC)C(=O)NCC(=O)N[C@H](C(=O)N[C@@H](CC(N)=O)C(=O)N[C@@H](CCSC)C(=O)N[C@@H](CCCCN)C(=O)N4CCC[C@H]4C(=O)N4CCC[C@H]4C(=O)N[C@@H](Cc4ccc(O)cc4)C(=O)N[C@@H](CC(C)C)C(=O)N4CCC[C@H]4C(=O)N[C@@H](CCCNC(=N)N)C(=O)N4CCC[C@H]4C(=O)N[C@@H](CCCNC(=N)N)C(=O)N4CCC[C@H]4C(=O)N4CCC[C@H]4C(=O)N[C@@H](CCCNC(=N)N)C(=O)N[C@@H](CCCNC(=N)N)C(=O)N[C@H](C(=O)N[C@@H](Cc4ccc(O)cc4)C(=O)N[C@@H](CC(N)=O)C(=O)N[C@@H](CCCNC(=N)N)C(=O)O)[C@@H](C)CC)CS[C@H]3C)CS[C@H]2C)NC(=O)[C@H](CC(C)C)NC1=O` [GNT6] the “MIC value, E. coli CECT101” value (E. coli CECT101; CECT101, 18 h) was greater than 16 µM and the “Activity against E. coli CECT101 relative to nisin” value (E. coli CECT101) was “lower net activity than nisin”.
In the case of Nisin + GKHVGKALKGLKGLLK, the cleaved bond [2] is reported as “Val32-Dha33”.
In the case of GNNRPVYIPQPRPPHPRL [Apidaecin 1b], the MIC (E. coli BL21 AI; ref Berthold et al., [2013]) is given as 0.5^b μM and the MIC (E. coli BL21 AI; ref Berthold et al., [2013], listed as apidaecin 1b) is given as 0.5 µM.
For GIGKHVGKALKGLKGLLKGLGEC-NH2 [ADP2], the MIC (E. coli ATCC 25922; ref Iliæ et al.) is given as 1^f μM.
For VDKPPYLPRPRPPRRIYNR-NH2 [Oncocin], the MIC (E. coli BL21 AI; ref Knappe et al., [2010]) is listed as 1.7^b μM.
For `C=C1NC(=O)[C@H]([C@@H](C)CC)NC(=O)[C@H](NC(=O)/C(=C/C)NC(=O)[C@@H](N)[C@@H](C)CC)CSC[C@@H](C(=O)N[C@H]2C(=O)N3CCC[C@H]3C(=O)NCC(=O)N[C@H](C(=O)N[C@@H](CCCCN)C(=O)N[C@H]3C(=O)NCC(=O)N[C@@H](C)C(=O)N[C@@H](CC(C)C)C(=O)N[C@@H](CCSC)C(=O)NCC(=O)N[C@H](C(=O)N[C@@H](CC(N)=O)C(=O)N[C@@H](CCSC)C(=O)N[C@@H](CCCCN)C(=O)N4CCC[C@H]4C(=O)N[C@@H](CCCNC(=N)N)C(=O)N4CCC[C@H]4C(=O)N4CCC[C@H]4C(=O)N[C@@H](Cc4c[nH]cn4)C(=O)N4CCC[C@H]4C(=O)N[C@@H](CCCNC(=N)N)C(=O)N[C@@H](CC(C)C)C(=O)O)CS[C@H]3C)CS[C@H]2C)NC(=O)[C@H](CC(C)C)NC1=O` [GNT16-3rings], the “MIC value, E. coli CECT101” value (E. coli CECT101; CECT101, 18 h) was greater than 32 µM, the “Activity against E. coli CECT101 relative to nisin” value (E. coli CECT101) was “lower net activity than nisin” and the “MIC value, L. lactis MG1363” value (L. lactis MG1363) was 1 µM (≈ 3.09 µg/mL).
With Ring ABC + NGKPRPYSPRPTSHPRPIRV the cleaved bond [1] was “P-I”.
In the case of Ring ABC + NMKPPYLPRPRPPRRIYNR, the cleaved bond [1] is reported as “Y-N and I-Y”.
In the case of `C=C1NC(=O)[C@H]([C@@H](C)CC)NC(=O)[C@H](NC(=O)/C(=C/C)NC(=O)[C@@H](N)[C@@H](C)CC)CSC[C@@H](C(=O)N[C@H]2C(=O)N3CCC[C@H]3C(=O)NCC(=O)N[C@H](C(=O)N[C@@H](CCCCN)C(=O)N[C@H]3C(=O)NCC(=O)N[C@@H](C)C(=O)N[C@@H](CC(C)C)C(=O)N[C@@H](CCSC)C(=O)NCC(=O)N[C@H](C(=O)N[C@@H](CC(N)=O)C(=O)N[C@@H](CCSC)C(=O)N[C@@H](CCCCN)C(=O)N[C@H](C(=O)N[C@@H](Cc4ccc(O)cc4)C(=O)N[C@H](C(=O)N4CCC[C@H]4C(=O)N[C@@H](CCCNC(=N)N)C(=O)N4CCC[C@H]4C(=O)N[C@@H](CCCNC(=N)N)C(=O)N4CCC[C@H]4C(=O)N4CCC[C@H]4C(=O)N[C@@H](Cc4c[nH]cn4)C(=O)N4CCC[C@H]4C(=O)N[C@@H](CCCNC(=N)N)C(=O)O)[C@@H](C)CC)C(C)C)CS[C@H]3C)CS[C@H]2C)NC(=O)[C@H](CC(C)C)NC1=O` [GNT1], the “MIC value, E. coli CECT101” value (E. coli CECT101; CECT101, 18 h) is reported as greater than 16 µM, the “Activity against E. coli CECT101 relative to nisin” value (E. coli CECT101) is reported as “lower net activity than nisin” and the “MIC value, L. lactis MG1363” value (L. lactis MG1363) is reported as 1 µM (≈ 3.61 µg/mL).
